Results from publication PMC9737981, “Molecular Hybridization Strategy on the Design, Synthesis, and Structural Characterization of Ferrocene-N-acyl Hydrazones as Immunomodulatory Agents” (Molecules, 2022).

Experiments:
[1] = Cytotoxicity to J774 macrophages (Alamar Blue); type: cell-based; conditions: mouse, read-out: CC50 (µM) JJ74
Description: (§1) J774 macrophages were seeded into 96-well plates at a cell density of 1 × 10^4 cells/well in a DMEM medium supplemented with 10% fetal bovine serum (FBS; GIBCO) and 50 µg/mL of gentamicin (Life Technologies, Carlsbad, CA, USA) and incubated for 24 h at 37 °C and 5% CO2. After that time, each compound was added in six concentrations (50–1.56 µM), in triplicate, and incubated for 72 h. At the end of treatment, 20 µL/well of Alamar Blue (Invitrogen) was added to the plates for 4 h. […]
(§2) As a positive control, gentian violet was used at concentrations ranging from 0.04 to 10 µM. CC50 values were calculated using data from three independent experiments.
(§3) To determine the cytotoxicity concentration of 50% of J774 macrophages (CC50), we used non-linear regression. One-way analysis of variance and Newman–Keuls multiple comparison tests were employed by using Graph Pad Prism version 8.0.1 (Graph Pad Software; San Diego, CA, USA). Differences were considered significant when the values of p were < 0.05. The data are representative of at least two or three experiments.

J774 macrophages = assay: Cytotoxicity to J774 macrophages (Alamar Blue); type: cell-based; conditions: 72 h, read-out: CC50 (µM) JJ74
Description: as §1, §2, §3

nitric oxide production = assay: Inhibition of nitric oxide (nitrite) production in J774 macrophages stimulated with LPS + IFN-γ (Griess); type: cell-based; conditions: 24 h incubation with compounds and LPS plus IFN-γ
Description: (§4) Immortalized J774 macrophages (2 × 10^5 cells/well) or peritoneal macrophages (2 × 10^5 cells/well) were incubated in 96-well plates in a DMEM medium supplemented with 10% FBS and 50 µg/mL of gentamicin, in triplicate, stimulated or not with LPS (500 ng/mL) and IFN-γ (5 ng/mL), and treated or not with different concentrations of the evaluated ferrocenyl-N-acyl hydrazones. The cells were incubated for 4 or 24 h at 37 °C and 5% CO2. Cell-free supernatants were collected after 4 h (for TNFα measurement) and 24 h (for IL-1β, TNFα, and nitrite quantifications), and kept at −80 °C until use.
(§5) The dosage of cytokines IFN-γ, IL-1β, IL-2, IL-4, and TNFα was performed from the supernatant of peritoneal macrophages or splenocytes were determined by enzyme-linked immunosorbent assay (ELISA), using DuoSet kits from R&D Systems, according to the manufacturer’s instructions. Nitric oxide production was estimated in macrophage culture supernatants harvested at 24 h using the Griess method for nitrite quantification.

peritoneal macrophages = assay: Cytotoxicity to peritoneal macrophages activated with LPS + IFNγ (Alamar Blue); type: cell-based, BALB/c mice; conditions: all concentrations tested (10, 20, 40 µM)
Description: The second set of experiments was performed using peritoneal macrophages activated with LPS (500 ng/mL, Sigma-Aldrich) and IFNγ (5 ng/mL; Sigma-Aldrich).
Peritoneal exudate macrophages were obtained by washing, with a cold DMEM medium, the peritoneal cavity of BALB/c mice 4–5 days after injection of 3% thioglycolate (Sigma-Aldrich) in saline (1.5 mL per mouse). Cells were seeded into 96-well plates at a cell density of 1 × 10^5 cells/well in a DMEM medium supplemented with 10% FBS and 50 µg/mL of gentamicin and incubated for 24 h at 37 °C and 5% CO2. […] At the end of treatment, 20 µL/well of Alamar Blue (Invitrogen) were added to the plates for 10 h. Colorimetric readings were performed at 570 and 600 nm using a SpectraMax 190 Microplate Reader (Molecular Devices, Sunnyvale, CA, USA).

nitrite production = assay: Nitrite production by activated peritoneal macrophages (Griess); type: cell-based, BALB/c mice; conditions: 10, 20 and 40 µM; LPS + IFN-γ; p < 0.05
Description: as §4, §5

TNFα = TNFα production by peritoneal macrophages stimulated with LPS + IFN-γ (ELISA); type: cell-based, BALB/c mice; conditions: 10, 20 and 40 µM, 4 h, p < 0.05
Description: as §4, §5

IL-1β = IL-1β production by peritoneal macrophages stimulated with LPS + IFN-γ (ELISA); type: cell-based, BALB/c mice; conditions: 10, 20 and 40 µM, 24 h, p < 0.05
Description: as §4, §5

IL-2 = IL-2 production by splenocytes stimulated with concanavalin A (ELISA); type: cell-based, BALB/c mice; conditions: 10, 20, 40 µM; Con A 5 µg/mL; 24 h
Description: (§6) BALB/c splenocyte suspensions were prepared in a DMEM medium supplemented with FBS and gentamicin. Splenocytes (5 × 10^6 cells/well) were plated in 24-well plates, in triplicate, and stimulated or not with concanavalin A (Con A; 5 µg/mL, Sigma-Aldrich). To evaluate lymphocyte function, splenocytes were activated in the absence or presence of various concentrations of SintMed149 and SintMed150 (10, 20, and 40 µM). After 24 h of treatment, cell-free supernatants were collected and kept at −80 °C until use.
as §5

IL-4 = IL-4 production by splenocytes stimulated with concanavalin A (ELISA); type: cell-based, BALB/c mice; conditions: 10, 20, 40 µM; Con A 5 µg/mL; 24 h
Description: as §6, §5

IFN-γ = IFN-γ production by splenocytes stimulated with concanavalin A (ELISA); type: cell-based, BALB/c mice; conditions: 10, 20, 40 µM; Con A 5 µg/mL; 24 h
Description: as §6, §5

[2] = Acute toxicity in mice (single oral dose); type: in vivo, BALB/c mice; conditions: for Changes in the eyes / Changes in the fur / Changes in the skin / Coma / Convulsions / Diarrhea / Lethargy / Salivation / Sleep / Tremors: observed daily for 14 days; for Mortality or signs of toxicity: 2 weeks
Description: Male BALB/c mice (6–8 weeks of age; n = 6/group) were randomized into three groups and treated orally with a single dose of SintMed150 (50 or 100 mg/kg) or vehicle (solution containing 30% sorbitol, 10 % Tween 80, and 60% saline). Animals were monitored for signs of general toxicity for 2 weeks after treatment. Observations involved changes in eyes, fur, and skin, and the occurrence of tremors, salivation, convulsions, diarrhea, sleep, lethargy, and coma. Body weights were taken and recorded at days 0, 7, and 14.

[3] = test system: LPS-induced endotoxic shock; assay: LPS-induced endotoxin shock (survival); type: in vivo, BALB/c mice
Description: Groups of five male BALB/c mice (4 weeks of age) were used for the LPS lethality assays. Mice were treated with different doses of SintMed150 (50 or 100 mg/kg), dexamethasone (25 mg/kg), or vehicle (solution containing 30% sorbitol, 10% Tween 80, and 60% saline), by intraperitoneal (i.p.) route. Ninety minutes later, animals were challenged with 600 µg of LPS (from serotype 0111:B4 Escherichia coli, Sigma-Aldrich) in saline, by i.p. route. The survival rate was then monitored daily during 4 days.

[4] = test system: carrageenan-induced acute peritonitis; assay: Carrageenan-induced acute peritonitis (neutrophil migration); type: in vivo, BALB/c mice; conditions: 100 mg/kg orally 24 and 1 h before carrageenan; compared to vehicle
Description: Next, animals were challenged with a 250 μL injection of carrageenan (1 mg/mL; intraperitoneal route). After 4 h, animals were euthanized and peritoneal exudates were harvested by peritoneal lavage using 2.5 mL of saline solution. Cells were centrifuged at 400× g for 10 min, at 4 °C. The pellet was resuspended in saline (1 mL). Total leukocytes in the peritoneal fluid were determined in a Neubauer chamber after dilution in Trypan blue stain. Differential counting of neutrophils was carried out in rapid panotype-stained cytospin preparations. A differential count of 300 cells was made in a blinded fashion and according to standard morphologic criteria.

In the case of `CN(C)c1ccc(C(=C2C=CC(=[N+](C)C)C=C2)c2ccc(N(C)C)cc2)cc1` [GV, gentian violet, reference compound], the CC50 at 72 h [1] is reported as 0.8 µM.

In the case of `O=C(N/N=C/[c-]1cccc1)c1ccccc1Oc1ccccc1.[Fe+2].c1cc[cH-]c1` [SintMed150, (E)-N′-(Ferrocenylmethylidene)-2-phenoxybenzohydrazide], the CC50 (J774 macrophages) is reported as > 50 µM, the “Inhibition of NO (%) Production at 40 μM” value (nitric oxide production) is reported as 74.2 (±0.7) % and the “Cytotoxicity (cell viability) in peritoneal macrophages” value (peritoneal macrophages) is reported as “not cytotoxic”. The Nitrite production (nitrite production) was “inhibited, in a concentration-dependent manner”, the TNF production (TNFα) was “inhibitory effect” and the IL-1β production (IL-1β) was “inhibitory effect”. The IL-2 levels (IL-2) was “significant and concentration-dependent reduction”, the IL-4 levels (IL-4) was “did not significantly reduce” and the IFN-γ levels (IFN-γ) was “performed the same feat”. The “Changes in the eyes” value ([2]; 50 mg/kg single oral dose) was “No changes”, the “Changes in the fur” value ([2]; 50 mg/kg single oral dose) was “No changes” and the “Changes in the skin” value ([2]; 50 mg/kg single oral dose) was “No changes”. The Coma ([2]; 50 mg/kg single oral dose) was “Absent”, the Convulsions ([2]; 50 mg/kg single oral dose) was “Absent” and the Diarrhea ([2]; 50 mg/kg single oral dose) was “Absent”. The Lethargy ([2]; 50 mg/kg single oral dose) was “Absent”, the Salivation ([2]; 50 mg/kg single oral dose) was “Absent” and the Sleep ([2]; 50 mg/kg single oral dose) was “Usual”. The Tremors ([2]; 50 mg/kg single oral dose) was “Absent”, the Body weight ([2]; 50 mg/kg, day 0) was 20.9 (±1.1) and the Body weight ([2]; 50 mg/kg, day 7) was 21.1 (±1.1). The Body weight ([2]; 50 mg/kg, day 14) was 21.7 (±0.9), the “Changes in the eyes” value ([2]; 100 mg/kg single oral dose) was “No changes” and the “Changes in the fur” value ([2]; 100 mg/kg single oral dose) was “No changes”. For the same compound, the “Changes in the skin” value ([2]; 100 mg/kg single oral dose) was “No changes”, the Coma ([2]; 100 mg/kg single oral dose) was “Absent” and the Convulsions ([2]; 100 mg/kg single oral dose) was “Absent”. The Diarrhea ([2]; 100 mg/kg single oral dose) was “Absent”, the Lethargy ([2]; 100 mg/kg single oral dose) was “Absent” and the Salivation ([2]; 100 mg/kg single oral dose) was “Absent”. The Sleep ([2]; 100 mg/kg single oral dose) was “Usual”, the Tremors ([2]; 100 mg/kg single oral dose) was “Absent” and the Body weight ([2]; 100 mg/kg, day 0) was 20.1 (±0.8). The Body weight ([2]; 100 mg/kg, day 7) was 20.4 (±0.7), the Body weight ([2]; 100 mg/kg, day 14) was 21.0 (±0.7) and the “Mortality or signs of toxicity” value ([2]; single oral dose 50 mg/kg) was “did not cause mortality or the appearance of any sign of toxicity”. The “Mortality or signs of toxicity” value ([2]; single oral dose 100 mg/kg) was “did not cause mortality or the appearance of any sign of toxicity”, the “Body weight compared to vehicle-treated mice” value ([2]; single oral dose 50 or 100 mg/kg) was “no difference in body weight” and the Survival ([3]; 50 mg/kg, third day after lethal LPS) was “already died”. For the same compound, the Survival ([3]; 100 mg/kg, fourth day after lethal LPS, p < 0.05) was 20%, the “Survival time in comparison with the vehicle group” value ([3]; 50 or 100 mg/kg, lethal LPS) was “longer survival time” and the “Reduction in neutrophil migration” value [4] was 44.6%.
